Assay results as given in patent US8013018B2, “Aminoindane derivative or salt thereof” (Astellas Pharma Inc., priority 2006, dated 2011).
Counter-ions that a name gives are not always drawn.

Molecular target: NMDA receptor
Experiment: [3H] MK-801 binding test on rat brain membrane specimen
Conditions: read-out: Ki (NMDA receptor affinity)
Experimental: 1) Preparation of Specimens of Rat Meninges:
The whole brain was taken out from 30 10-week SD rats (Nippon SLC), and the cerebellum was removed from them. A 0.32 M sucrose solution was added to the part containing the cerebrum, cut in a mixer, and homogenized with a Teflon™ (trademark) homogenizer. This was centrifuged at 2800 rpm and 4° C. for 15 minutes, and the resulting supernatant was again centrifuged at 15000 g and 4° C. for 20 minutes. The pellets were suspended in 50 mM Tris-HCL (pH 7.5) containing 0.08% Triton X-100, and kept statically on ice for 30 minutes, then centrifuged at 15000 g and 4° C. for 20 minutes. The pellets were suspended in 50 mM Tris-HCl (pH 7.5) added thereto, and centrifuged at 15000 g and 4° C. for 20 minutes. 50 mM Tris-HCl (pH 7.5) was again added to the pellets, and centrifuged in the same manner as before. The pellets were suspended in 20 ml of 50 mM Tris-HCl (pH 7.5) added thereto, and homogenized with the Teflon™ (trademark) homogenizer. The membrane specimen was divided into small tubes and stored in a deep freezer (−80° C.). Before use, this was washed twice with 5 mM Tris-HCl (pH 7.5) of five times that of the membrane specimen. Its concentration was controlled at 1 mg protein/ml with 5 mM Tris-HCl (pH 7.5) added to it, and this was used for assay.
2) [^3H] MK-801 Binding Assay:
50 μl of the rat membrane specimen (1 mg protein/ml) was added to a solution of a test compound dissolved in 1 μl of DMSO.

| SMILES | Ki |
| --- | --- |
| CCC1(CC)Cc2ccccc2C1(N)c1ccccc1 (stereo not drawn) [Example 2] | 400 nM |
| CNC1(c2ccccc2)c2ccccc2CC1(C)C (stereo not drawn) [Example 10, N,2,2-trimethyl-1-phenylindan-1-amine hydrochloride] | 400 nM |
| CC1(C)Cc2ccccc2C1(N)c1ccc(F)cc1 (stereo not drawn) [Example 17, 1-(4-Fluorophenyl)-2,2-dimethylindan-1-amine monofumarate] | 800 nM |
| COc1ccccc1C1(N)c2ccccc2CC1(C)C (stereo not drawn) [Example 18, 1-(2-Methoxyphenyl)-2,2-dimethylindan-1-amine hydrochloride] | 300 nM |
| CC1(C)Cc2ccccc2C1(N)c1cccc(O)c1 (stereo not drawn) [Example 21, 1-(3-Hydroxyphenyl)-2,2-dimethylindan-1-amine] | 100 nM |
| CC1(C)Cc2ccccc2C1(C)N (stereo not drawn) [Example 23, 1,2,2-Trimethylindan-1-amine hydrochloride] | 900 nM |
| Cc1ccc2c(c1)C(C)(N)C(C)(C)C2 (stereo not drawn) [Example 36, 1,2,2,6-Tetramethylindan-1-amine hydrochloride] | 400 nM |
| COc1ccc2c(c1)C(C)(N)C(C)(C)C2 (stereo not drawn) [Example 38, 6-Methoxy-1,2,2-trimethylindan-1-amine hydrochloride] | 300 nM |
| CC1(C)Cc2ccc(F)cc2C1(C)N (stereo not drawn) [Example 41, 6-Fluoro-1,2,2-trimethylindan-1-amine hydrochloride] | 800 nM |
| CC1(C)Cc2ccc(Br)cc2C1(C)N (stereo not drawn) [Example 42, 6-Bromo-1,2,2,-trimethylindan-1-amine hydrochloride] | 300 nM |
| CC1(C)Cc2ccc(C(F)(F)F)cc2C1(C)N (stereo not drawn) [Example 43, 6-Trifluoromethyl-1,2,2-trimethylindan-1-amine hydrochloride] | 300 nM |
| CC1(C)Cc2ccc(C#N)cc2C1(C)N (stereo not drawn) [Example 44, 6-Cyano-1,2,2-trimethylindan-1-amine hydrochloride] | 600 nM |
| CC1(C)Cc2cccc(F)c2C1(C)N (stereo not drawn) [Example 48, 7 Fluoro-1,2,2-trimethylindan-1-amine hydrochloride] | 600 nM |
| CCC1(N)c2cccc(C)c2CC1(C)C (stereo not drawn) [Example 59] | 900 nM |
| CCCCC1(N)c2ccccc2CC1(C)C (stereo not drawn) [Example 61] | 500 nM |
